Laboratory results as given in US6723739B1, “Glucopyranoside benzothiophenes” (Eli Lilly and Company, priority 1994, dated 2004).

Tests used:
[1] = system: serum cholesterol; assay: Serum cholesterol in the ovariectomized rat post-menopausal model; assay type: in vivo; details: OVX rats, daily for 4 days
Experimental: (§1) A post-menopausal model was used in which effects of different treatments upon circulating lipids were determined.
(§2) Seventy-five day old female Sprague Dawley rats (weight range of 200 to 225 g) were obtained from Charles River Laboratories (Portage, Mich.). The animals were either bilaterally ovariectomized (OVX) or exposed to a sham surgical procedure at Charles River Laboratories, and then shipped after one week. Upon arrival, they were housed in metal hanging cages in groups of 3 or 4 per cage and had ad libitum access to food (calcium content approximately 0.5%) and water for one week. Room temperature was maintained at 22.2°±1.7° C. with a minimum relative humidity of 40%. The photoperiod in the room was 12 hours light and 12 hours dark.
(§3) Dosina Regimen/Tissue Collection. After a one week acclimation period (therefore, two weeks post-OVX) daily dosing with test compound was initiated. All compounds were administered subcutaneously at the dosages listed. Animals were dosed daily for 4 days. Following the dosing regimen animals were weighed and anesthetized with a ketamine: xylazine (2:1, [V:V] mixture and a blood sample was collected by cardiac puncture. The animals were then sacrificed by asphyxiation with CO2 and the uterus was removed through a midline incision and a wet weight was determined.
Cholesterol Analysis. Blood samples were allowed to clot at room temperature for 2 hrs, and serum was obtained following centrifugation for 10 min at 3000 rpm. Serum cholesterol was determined using a Boehringer Mannheim Diagnostics high performance cholesterol assay. Briefly the cholesterol was oxidized to cholest-4-en-3-one and hydrogen peroxide. The hydrogen peroxide was then reacted with phenol and 4-aminophenazone in the presence of peroxidase to produce a p-quinone imine dye, which was read spectrophotometrically at 500 nm. Cholesterol concentration was then calculated against a standard curve. The entire assay was automated using a Biomek Automated workstation.

[2] = system: uterus; assay: Uterine wet weight in ovariectomized rats; assay type: in vivo, rat; details: OVX rats, daily for 4 days, vs control OVX
Experimental: as §1, §2, §3

[3] = system: uterine eosinophil peroxidase; assay: Uterine eosinophil peroxidase (EPO) assay in ovariectomized rats; assay type: in vivo, rat; details: OVX rats, daily for 4 days
Text: as §2, §3
Uterine Eosinophil Peroxidase (EPO) Assay. The presence of eosinophils in the uterus is an indication of estrogenic activity of a compound. To maintain EPO activity, uteri were kept at 4° C. until time of enzymatic analysis. The uteri were then homogenized in 50 volumes of 50 mM Tris buffer (pH-8.0) containing 0.005% Triton X-100. Upon addition of 0.01% hydrogen peroxide and 10 mM o-phenylenediamine (final concentrations) in Tris buffer, increase in absorbance was monitored for one minute at 450 nm. The maximal velocity of a 15 second interval was determined over the initial linear portion of the reaction curve.

[4] = Systemic circulation and metabolites after oral raloxifene in humans; assay type: in vivo, human

| Compound | % Decrease of Serum Cholesterol ([1]; 0.013 mg/kg subcutaneously) | % Decrease of Serum Cholesterol ([1]; 0.13 mg/kg subcutaneously) | % Decrease of Serum Cholesterol ([1]; 1.3 mg/kg subcutaneously) | % Uterine Wt. gain ([2]; 0.013 mg/kg subcutaneously) | % Uterine Wt. gain ([2]; 0.13 mg/kg subcutaneously) | % Uterine Wt. gain ([2]; 1.3 mg/kg subcutaneously) | EPO Activity (Vmax for eosinophil peroxidase activity) ([3]; 0.013 mg/kg subcutaneously) | EPO Activity (Vmax for eosinophil peroxidase activity) ([3]; 0.13 mg/kg subcutaneously) | EPO Activity (Vmax for eosinophil peroxidase activity) ([3]; 1.3 mg/kg subcutaneously) | Metabolite status ([4]; human metabolite of raloxifene) | Concentrations of raloxifene in systemic circulation ([4]; administered orally to humans) |
| --- | --- | --- | --- | --- | --- | --- | --- | --- | --- | --- | --- |
| O=C(c1ccc(OCCN2CCCCC2)cc1)c1c(-c2ccc(O)cc2)sc2cc(O[C@@H]3OC(C(=O)O)[C@@H](O)[C@H](O)[C@H]3O)ccc12 (some centres unmarked) [Ia] | 21.7% | 43.8% | 44.5% | −21.3% | 14.2% | 24.1% | 2.0 n OD/min | 2.3 n OD/min | 3.5 n OD/min |  |  |
| O=C(c1ccc(OCCN2CCCCC2)cc1)c1c(-c2ccc(O[C@@H]3O[C@H](C(=O)O)[C@@H](O)[C@H](O)[C@H]3O)cc2)sc2cc(O)ccc12 [Ib] | 13.6% | 21.9% | 56.8% | −7.7% | 14.5% | 36.1% | 3.2 n OD/min | 3.1 n OD/min | 4.4 n OD/min | predominant human metabolite |  |
| Cl.O=C(c1ccc(OCCN2CCCCC2)cc1)c1c(-c2ccc(O)cc2)sc2cc(O)ccc12 [raloxifene, 6-Hydroxy-2-(4-hydroxyphenyl)-3-[4-(2-piperidinoethoxy)benzoyl]benzo[b]thiophene, reference compound] |  |  |  |  |  |  |  |  |  |  | absence of detectable concentrations |
